Among the data in patent US20260035376A1, “COMPOSITIONS AND METHODS FOR INHIBITION OF RAS” (TheRas, Inc., priority 2022, published 2026) are IC50 values, retold here.

Test [1] has as its target T1, Avi-KRAS G12R (1-169) GppNHp/RAF1 RBD-3×FLAG (52-151) (Homo sapiens, UniProt P01116, G12R).
T1 construct: 50 nM Avi-KRAS G12R (1-169) GppNHp/RAF1 RBD-3×FLAG (52-151)
The test is described as follows: Disrupting RAS-effector binding HTRF assay, Raf1 RBD-KRAS G12R-GppNHp. Particulars: PPI HTRF, 50 nM Avi-KRAS G12R GppNHp, compound titration 30-0.0045 μM; read-out: Raf1 RBD-KRAS G12R-GppNHp disruption.

The target in test [2] is T2, Avi-KRAS WT (1-169) GppNHp/RAF1 RBD-3×FLAG (52-151) (Homo sapiens, UniProt P01116).
T2 construct: 50 nM Avi-KRAS WT (1-169) GppNHp/RAF1 RBD-3×FLAG (52-151)
Description: Disrupting RAS-effector binding HTRF assay, Raf1 RBD-KRAS WT-GppNHp. Particulars: PPI HTRF, 50 nM Avi-KRAS WT GppNHp, compound titration 30-0.0045 μM; read-out: Raf1 RBD-KRAS WT-GppNHp disruption. In general terms: TR-FRET usually uses a lanthanide donor and a delayed reading to cut background.

Test [3] deals with KRAS G12V protein/effector signaling in SW620 cells. Description: Cell-based pERK HTRF assay in SW620 cell. Particulars: Homo sapiens, SW-620, 1 h incubation. On the procedure: pERK assay (Perkin Elmer) was used to determine the effectiveness of compounds in disrupting KRAS G12V protein/effector signaling in cells.
On Day 1, cells (SW620) were seeded into 96-well plates at 3×10^4 cells/well in 80 μL complete growth media (DMEM, 10% FBS).
On Day 2, cells were treated with compounds at 0.25% DMSO. The source plate was created with compounds diluted in media at 5-fold the final assay concentration. The compounds were run in a 9-point concentration curve starting at 10 μM, with a half-log dilution between concentrations. 20 μL was transferred onto the cell plates (final volume in wells was 100 μL). Plates were harvested after 1 h incubation by aspirating media and adding kit-supplied 1× supplemented lysis buffer to all wells (50 μL per well). Plates were then placed on a plate shaker and incubated at 850 rpm for an additional 30 min.
Antibody mixture solution was prepared by diluting aliquoted d2 and Eu Cryptate antibodies 1:20 in kit supplied detection buffer, and mixing the diluted antibodies solutions (1:1 v:v). Four μL of this solution was then added to a 384-well detection plate (Perkin Elmer; 6008230).
Samples were homogenized by pipetting up and down and then transferred (16 μL of cell lysates) from the 96-well cell culture plate to two wells of the HTRF 384-well detection plate containing the antibody solution. Plates were centrifuged (524 g for 1 min) and allowed to incubate between 4 and 24 h at room temperature. Maximum signal was reached after 4 h incubation time and remained stable over a period of 24 hours. Therefore, readings could be made between 4 and 24 h of incubation. Plates were centrifuged again (524 g for 1 min), then analyzed on the EnVision plate reader using the following settings: Excitation 320 nm, Bandwidth 75 nm; Emission 615 nm, Bandwidth 85 nm; Gain 100%; Flashes 100; Lag 60 μs.

The subject of test [4] is KRAS G12D protein/effector signaling in GP2d cells. Description: Cell-based pERK HTRF assay in GP2d cell. The following applies: 1 h, 60 min incubation. The gist of the method: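 GP2d cells (DMEM, 10% FBS) exposed 60 min to a 9-point half-log compound series at 0.25% DMSO, then lysed. Phospho-ERK quantified by HTRF with d2/Eu cryptate antibodies after 4–24 h at room temperature, ex 320/em 615 nm.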

The target in test [5] is T3, Avi-KRAS G12D (1-169) GppNHp/RAF1 RBD-3×FLAG (52-151) (Homo sapiens, UniProt P01116, G12D).
T3 construct: 50 nM Avi-KRAS G12D (1-169) GppNHp/RAF1 RBD-3×FLAG (52-151)
The test is described as follows: Disrupting RAS-effector binding HTRF assay, Raf1 RBD-KRAS G12D-GppNHp. Particulars: PPI HTRF, 50 nM Avi-KRAS G12D GppNHp, compound titration 30-0.0045 μM; read-out: Raf1 RBD-KRAS G12D-GppNHp disruption.

The target of test [6] is T4, Avi-KRAS G12V (1-169) GppNHp/RAF1 RBD-3×FLAG (52-151) (Homo sapiens, UniProt P01116, G12V).
T4 construct: 50 nM Avi-KRAS G12V (1-169) GppNHp/RAF1 RBD-3×FLAG (52-151)
Description: Disrupting RAS-effector binding HTRF assay, Raf1 RBD-KRAS G12V-GppNHp. The following applies: PPI HTRF, 50 nM Avi-KRAS G12V GppNHp, compound titration 30-0.0045 μM; read-out: Raf1 RBD-KRAS G12V-GppNHp disruption.

Bounds are passed on as bounds.

T4 sequence (P01116 1-169 isoform P01116-2 G12V limits assumed): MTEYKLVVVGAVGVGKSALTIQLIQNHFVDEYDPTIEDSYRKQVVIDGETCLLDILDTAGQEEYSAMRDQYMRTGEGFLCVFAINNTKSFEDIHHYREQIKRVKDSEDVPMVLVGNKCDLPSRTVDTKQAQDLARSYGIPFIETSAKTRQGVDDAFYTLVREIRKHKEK
T1 sequence (P01116 1-169 isoform P01116-2 G12R limits assumed): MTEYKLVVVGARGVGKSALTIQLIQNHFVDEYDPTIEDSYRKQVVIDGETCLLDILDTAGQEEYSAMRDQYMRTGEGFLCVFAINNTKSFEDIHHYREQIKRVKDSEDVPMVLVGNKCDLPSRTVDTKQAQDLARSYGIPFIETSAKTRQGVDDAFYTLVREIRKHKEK
T3 sequence (P01116 1-169 isoform P01116-2 G12D limits assumed): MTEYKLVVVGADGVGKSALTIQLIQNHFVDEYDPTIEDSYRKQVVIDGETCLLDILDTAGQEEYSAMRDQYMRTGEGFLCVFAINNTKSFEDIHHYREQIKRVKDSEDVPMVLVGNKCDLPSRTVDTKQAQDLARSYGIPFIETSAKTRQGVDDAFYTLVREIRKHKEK
T2 sequence (P01116 1-169 isoform P01116-2 limits assumed): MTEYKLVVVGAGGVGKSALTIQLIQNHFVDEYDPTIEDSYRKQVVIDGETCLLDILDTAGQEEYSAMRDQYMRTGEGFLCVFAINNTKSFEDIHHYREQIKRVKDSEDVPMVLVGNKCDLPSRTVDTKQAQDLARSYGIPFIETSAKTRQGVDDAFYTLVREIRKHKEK

Turning to `N#Cc1c(N)sc2c(F)ccc(-c3c(C(F)(F)F)cc4c(N5C[C@H]6CC[C@@H](C5)N6)nc(OCC5CCOCC5)nc4c3F)c12` [Compound 37, 4-(4-((1R,5S)-3,8-diazabicyclo[3.2.1]octan-3-yl)-8-fluoro-2-((tetrahydro-2H-pyran-4-yl)methoxy)-6-(trifluoromethyl)quinazolin-7-yl)-2-amino-7-fluorobenzo[b]thiophene-3-carbonitrile], the IC50 is more than 10 µM in test [1]; 1 to 10 µM in test [2]; more than 10 µM in test [3]; not above 0.1 µM in test [4]; 0.1 to 1 µM in test [5]; more than 10 µM in test [6].

Turning to `N#Cc1c(N)sc2c(F)ccc(-c3c(C(F)(F)F)cc4c(N5CC6CCC(C5)N6)nc(OCC5CCCCO5)nc4c3F)c12` (stereo not drawn) [Compound 49], the IC50 in test [1] was more than 10 µM; in test [2] it was 1 to 10 µM; in test [3], more than 10 µM; in test [4], not above 0.1 µM; in test [5] it was 1 to 10 µM; in test [6] it was more than 10 µM.

For `COc1c(Cl)c(-c2ccc(F)c3sc(N)c(C#N)c23)c(F)c2ncnc(N3CC4CCC(C3)N4)c12` [Compound 35], the IC50 in test [1] was more than 10 µM; in test [2], more than 10 µM; in test [3] it was more than 10 µM; in test [4] it was 0.1 to 1 µM; in test [5] it was more than 10 µM; in test [6], more than 10 µM.

For `N#Cc1c(N)sc2c(F)ccc(-c3c(C(F)(F)F)cc4c(N5CC6CCC(C5)N6)nc(OCCc5cnoc5)nc4c3F)c12` [Compound 65], the IC50 is more than 10 µM in test [1]; 1 to 10 µM in test [2]; more than 10 µM in test [3]; not above 0.1 µM in test [4]; 0.1 to 1 µM in test [5]; more than 10 µM in test [6].

In the case of `CN1CCC(COc2nc(N3CC4CCC(C3)N4)c3cc(C(F)(F)F)c(-c4ccc(F)c5sc(N)c(C#N)c45)c(F)c3n2)C1=O` (stereo not drawn) [Compound 55], the IC50 is 1 to 10 µM in test [1]; 0.1 to 1 µM in test [2]; more than 10 µM in test [3]; not above 0.1 µM in test [4]; 0.1 to 1 µM in test [5]; 1 to 10 µM in test [6].
